# Source: ChEMBL document CHEMBL1221247, “Oxidative stimuli-responsive nanoprodrug of camptothecin kills glioblastoma cells” (2010)
# The source made the active and inactive calls. The calls are words filed in the database; no cut-off is given here.
# What was measured:
# U-87MG ATCC = assay: Cytotoxicity against human U87MG cells at 250 nM after 6 days; type: functional, cell-based
# [1] = Cytotoxicity against human U87MG cells after 6 days; type: functional, U-87MG ATCC; settings: U-87 MG, 144 h, read-out: LD50 (the source's name)
SMILES,Activity (U-87MG ATCC),CC50 [1] [nM]
CC[C@@]1(OC(=O)OCCOCCOCCOCCOC(=O)CCCC[C@@H]2CCSS2)C(=O)OCc2c1cc1n(c2=O)Cc2cc3ccccc3nc2-1,Active,20
CC[C@@]1(O)C(=O)OCc2c1cc1n(c2=O)Cc2cc3ccccc3nc2-1 [CAMPTOTHECIN],Active,20
